Experimental findings from the supplement of paper PMC10307832 are described below.

Assay in all cases: relative viability (nuclei count vs DMSO), 5 days (fraction); higher = more cells survive
Compound in the experiment “Midostaurin + Navitoclax”: CO[C@@H]1[C@H](N(C)C(=O)c2ccccc2)C[C@H]2O[C@]1(C)n1c3ccccc3c3c4c(c5c6ccccc6n2c5c31)C(=O)NC4 [Midostaurin] + CC1(C)CCC(c2ccc(Cl)cc2)=C(CN2CCN(c3ccc(C(=O)NS(=O)(=O)c4ccc(N[C@H](CCN5CCOCC5)CSc5ccccc5)c(S(=O)(=O)C(F)(F)F)c4)cc3)CC2)C1 [Navitoclax] (partner 0.5 µM)
Summed up:
(§1)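 Relative viability is defined as nuclei in treated wells over nuclei in vehicle wells. Duplicate plates were run and medians reported. Lung cancer cell lines in 1536-well plates were dosed by pin tool one day after seeding, with one drug or with a fixed anchor-drug dose plus five library-drug doses (not always all listed) in √10 steps, and nuclei were counted after 5 days.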

Compound in experiment [1]: COc1cc(-c2nn([C@H]3CC[C@H](N4CCN(C(C)=O)CC4)CC3)c3ncnc(N)c23)ccc1NC(=O)c1cc2ccccc2n1C + Cc1nc(Nc2ncc(C(=O)Nc3c(C)cccc3Cl)s2)cc(N2CCN(CCO)CC2)n1 [Dasatinib] (partner 0.075 µM)
Summed up: as §1

Compound in the experiment “Midostaurin + Lapatinib”: CO[C@@H]1[C@H](N(C)C(=O)c2ccccc2)C[C@H]2O[C@]1(C)n1c3ccccc3c3c4c(c5c6ccccc6n2c5c31)C(=O)NC4 [Midostaurin] + CS(=O)(=O)CCNCc1ccc(-c2ccc3ncnc(Nc4ccc(OCc5cccc(F)c5)c(Cl)c4)c3c2)o1 [Lapatinib] (partner 2 µM)
Summed up: as §1

Compound in experiment [2]: COc1cc(-c2nn([C@H]3CC[C@H](N4CCN(C(C)=O)CC4)CC3)c3ncnc(N)c23)ccc1NC(=O)c1cc2ccccc2n1C + Cc1cc(Nc2cc(N3CCN(C)CC3)nc(Sc3ccc(NC(=O)C4CC4)cc3)n2)n[nH]1 [Tozasertib] (partner 0.1 µM)
A digest of the protocol: as §1

Compound in experiment [3]: COc1cc(-c2nn([C@H]3CC[C@H](N4CCN(C(C)=O)CC4)CC3)c3ncnc(N)c23)ccc1NC(=O)c1cc2ccccc2n1C + Nc1ncn([C@H]2C[C@H](O)[C@@H](CO)O2)c(=O)n1 [Decitabine] (partner 2 µM)
A digest of the protocol:
as §1

Turning to UMC-11, the relative viability with Midostaurin + Navitoclax (first compound 0.01 µM) worked out at 0.32; with Midostaurin + Navitoclax (first compound 0.03162 µM), 0.346; in the experiment with Midostaurin + Navitoclax (first compound 0.1 µM), 0.241; with Midostaurin + Navitoclax (first compound 0.3162 µM), 0.177; in experiment [1] (first compound 0.0128 µM), 0.49; in experiment [1] (first compound 0.04048 µM), 0.468. Moreover, the relative viability in experiment [1] (first compound 0.128 µM) is 0.42; in experiment [1] (first compound 1.28 µM) it was 0.446; in the experiment with Midostaurin + Lapatinib (first compound 0.01 µM), 0.936; with Midostaurin + Lapatinib (first compound 0.03162 µM) it was 0.836; with Midostaurin + Lapatinib (first compound 0.1 µM), 0.937; with Midostaurin + Lapatinib (first compound 0.3162 µM), 0.513. Besides, the relative viability in experiment [2] (first compound 0.0128 µM) came out at 0.225; in experiment [2] (first compound 0.04048 µM), 0.19; in experiment [2] (first compound 0.128 µM) it was 0.197; in experiment [2] (first compound 1.28 µM), 0.193; in experiment [3] (first compound 0.0128 µM), 0.706; in experiment [3] (first compound 0.04048 µM), 0.606. Also, the values for the relative viability in experiment [3] (first compound 0.128 µM) and in experiment [3] (first compound 1.28 µM) were 0.745 and 0.543, respectively.
